EC50 data for one compound are collected here from BindingDB's records for doi:10.1021/acsmedchemlett.0c00495 (Janssen Research & Development, 2020).

The target of the assay is Cannabinoid receptor 2 (Homo sapiens, UniProt P34972). The assay is described as follows: Inverse agonist activity at human CB2 receptor expressed in HEK293 cells assessed as forskolin-stimulated cAMP accumulation after 30 mins by HTRF assay. Background: Cyclic AMP is a second messenger, typically raised through Gs and lowered through Gi signalling.
Chain of Cannabinoid receptor 2 (P34972 whole entry): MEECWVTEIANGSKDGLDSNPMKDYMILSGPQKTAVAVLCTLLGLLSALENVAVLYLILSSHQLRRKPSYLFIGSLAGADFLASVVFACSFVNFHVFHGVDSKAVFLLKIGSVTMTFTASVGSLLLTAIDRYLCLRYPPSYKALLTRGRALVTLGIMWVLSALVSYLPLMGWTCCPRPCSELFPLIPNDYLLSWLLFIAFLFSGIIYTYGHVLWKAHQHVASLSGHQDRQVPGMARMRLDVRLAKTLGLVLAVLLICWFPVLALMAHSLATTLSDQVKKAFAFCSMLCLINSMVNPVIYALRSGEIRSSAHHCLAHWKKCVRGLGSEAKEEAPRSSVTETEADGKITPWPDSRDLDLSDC

Bounds are passed on as bounds.

`Nc1nc(NC2CCN(S(=O)(=O)C(F)(F)F)CC2)c2cc(C(c3ccc(Cl)cc3)c3ccc(Cl)cc3)ccc2n1` [US9682955, 107]: the EC50 (as a rule, the concentration at which the effect is half-maximal) was above 10 µM.
